pIC50: −log10 of the molar value.
Tests used:
Format in all cases: cell-based
human TLR7 = biological target: T1, human TLR7 (Homo sapiens, UniProt Q9NYK1); experiment: TLR7 inhibition reporter assay (HEK-Blue cells, SEAP reporter, gardiquimod stimulation); conditions: HEK-Blue cells overexpressing human TLR7, SEAP reporter, gardiquimod 7.5 μM
T1 construct: host or cells: HEK-Blue cells
T1 sequence (Q9NYK1 27-1049): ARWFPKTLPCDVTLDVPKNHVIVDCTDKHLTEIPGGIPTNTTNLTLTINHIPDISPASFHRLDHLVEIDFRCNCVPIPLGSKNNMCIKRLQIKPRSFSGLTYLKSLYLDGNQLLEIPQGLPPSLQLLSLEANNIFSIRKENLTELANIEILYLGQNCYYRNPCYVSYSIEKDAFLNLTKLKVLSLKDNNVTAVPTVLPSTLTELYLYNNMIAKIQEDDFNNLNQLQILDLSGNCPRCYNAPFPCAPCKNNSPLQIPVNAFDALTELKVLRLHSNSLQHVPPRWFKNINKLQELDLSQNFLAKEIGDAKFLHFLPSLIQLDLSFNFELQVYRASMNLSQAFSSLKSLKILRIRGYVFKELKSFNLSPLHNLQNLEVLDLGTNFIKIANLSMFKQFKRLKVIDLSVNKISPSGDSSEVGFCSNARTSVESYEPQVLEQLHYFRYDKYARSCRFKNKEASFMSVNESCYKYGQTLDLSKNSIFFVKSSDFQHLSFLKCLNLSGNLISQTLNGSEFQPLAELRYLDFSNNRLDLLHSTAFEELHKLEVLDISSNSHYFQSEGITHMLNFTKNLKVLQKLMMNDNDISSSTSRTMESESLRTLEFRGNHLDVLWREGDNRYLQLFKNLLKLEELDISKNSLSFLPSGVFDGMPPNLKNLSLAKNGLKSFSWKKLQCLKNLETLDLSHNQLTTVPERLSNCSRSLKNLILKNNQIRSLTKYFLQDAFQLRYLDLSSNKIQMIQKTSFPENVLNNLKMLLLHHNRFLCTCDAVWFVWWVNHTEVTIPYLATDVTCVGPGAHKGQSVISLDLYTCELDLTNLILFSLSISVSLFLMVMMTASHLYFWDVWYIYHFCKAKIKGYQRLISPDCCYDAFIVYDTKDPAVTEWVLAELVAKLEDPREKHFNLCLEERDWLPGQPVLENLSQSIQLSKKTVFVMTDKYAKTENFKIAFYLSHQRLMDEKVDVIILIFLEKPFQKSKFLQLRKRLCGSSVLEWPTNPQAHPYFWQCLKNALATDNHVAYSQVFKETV
Outline: (§1)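 Percent inhibition is derived from SEAP signal, scaled between agonist-plus-DMSO wells and wells given a known inhibitor. Test compounds (0.05 nM–50 μM) are pre-incubated 30 min at room temperature before agonist addition (TLR7: 7.5 μM gardiquimod; TLR8: 15.9 μM R848; TLR9: 5 nM ODN2006) and 22 h culture at 37 °C.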

human TLR9 = biological target: T2, human TLR9 (Homo sapiens, UniProt Q9NR96); experiment: TLR9 inhibition reporter assay (HEK-Blue cells, SEAP reporter, ODN2006 stimulation); conditions: HEK-Blue cells overexpressing human TLR9, SEAP reporter, ODN2006 5 nM
T2 construct: host or cells: HEK-Blue cells
T2 sequence (Q9NR96 26-1032): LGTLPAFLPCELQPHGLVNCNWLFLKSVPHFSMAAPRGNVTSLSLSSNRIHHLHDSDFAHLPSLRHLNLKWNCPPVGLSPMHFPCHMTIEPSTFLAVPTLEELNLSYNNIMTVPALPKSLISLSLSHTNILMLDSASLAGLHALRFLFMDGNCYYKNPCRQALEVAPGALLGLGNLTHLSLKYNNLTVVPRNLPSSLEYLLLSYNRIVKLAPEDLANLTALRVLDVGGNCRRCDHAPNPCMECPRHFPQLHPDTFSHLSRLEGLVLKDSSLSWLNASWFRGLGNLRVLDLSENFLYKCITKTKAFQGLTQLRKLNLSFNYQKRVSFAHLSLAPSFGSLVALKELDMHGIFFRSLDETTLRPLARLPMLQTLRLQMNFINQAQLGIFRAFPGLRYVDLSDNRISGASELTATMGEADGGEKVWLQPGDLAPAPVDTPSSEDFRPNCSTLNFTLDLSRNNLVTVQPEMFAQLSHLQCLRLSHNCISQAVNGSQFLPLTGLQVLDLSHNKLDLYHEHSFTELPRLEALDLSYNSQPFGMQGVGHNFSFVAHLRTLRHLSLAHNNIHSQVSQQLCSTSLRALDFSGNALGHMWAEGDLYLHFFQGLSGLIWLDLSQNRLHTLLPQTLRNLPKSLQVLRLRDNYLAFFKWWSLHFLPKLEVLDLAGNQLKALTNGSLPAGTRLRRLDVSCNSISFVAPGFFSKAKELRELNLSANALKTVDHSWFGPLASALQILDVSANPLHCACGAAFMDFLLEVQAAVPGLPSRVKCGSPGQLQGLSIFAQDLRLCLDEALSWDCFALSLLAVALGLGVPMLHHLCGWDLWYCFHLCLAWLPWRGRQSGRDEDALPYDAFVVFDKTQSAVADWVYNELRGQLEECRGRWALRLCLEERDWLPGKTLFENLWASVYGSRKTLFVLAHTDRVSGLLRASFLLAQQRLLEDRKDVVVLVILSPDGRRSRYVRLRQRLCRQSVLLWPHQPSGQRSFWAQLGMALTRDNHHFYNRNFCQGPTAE
Outline: as §1

human TLR8 = biological target: T3, human TLR8 (Homo sapiens, UniProt Q9NR97); experiment: TLR8 inhibition reporter assay (HEK-Blue cells, SEAP reporter, R848 stimulation); conditions: HEK-Blue cells overexpressing human TLR8, SEAP reporter, R848 15.9 μM
T3 construct: host or cells: HEK-Blue cells
T3 sequence (Q9NR97 27-1041): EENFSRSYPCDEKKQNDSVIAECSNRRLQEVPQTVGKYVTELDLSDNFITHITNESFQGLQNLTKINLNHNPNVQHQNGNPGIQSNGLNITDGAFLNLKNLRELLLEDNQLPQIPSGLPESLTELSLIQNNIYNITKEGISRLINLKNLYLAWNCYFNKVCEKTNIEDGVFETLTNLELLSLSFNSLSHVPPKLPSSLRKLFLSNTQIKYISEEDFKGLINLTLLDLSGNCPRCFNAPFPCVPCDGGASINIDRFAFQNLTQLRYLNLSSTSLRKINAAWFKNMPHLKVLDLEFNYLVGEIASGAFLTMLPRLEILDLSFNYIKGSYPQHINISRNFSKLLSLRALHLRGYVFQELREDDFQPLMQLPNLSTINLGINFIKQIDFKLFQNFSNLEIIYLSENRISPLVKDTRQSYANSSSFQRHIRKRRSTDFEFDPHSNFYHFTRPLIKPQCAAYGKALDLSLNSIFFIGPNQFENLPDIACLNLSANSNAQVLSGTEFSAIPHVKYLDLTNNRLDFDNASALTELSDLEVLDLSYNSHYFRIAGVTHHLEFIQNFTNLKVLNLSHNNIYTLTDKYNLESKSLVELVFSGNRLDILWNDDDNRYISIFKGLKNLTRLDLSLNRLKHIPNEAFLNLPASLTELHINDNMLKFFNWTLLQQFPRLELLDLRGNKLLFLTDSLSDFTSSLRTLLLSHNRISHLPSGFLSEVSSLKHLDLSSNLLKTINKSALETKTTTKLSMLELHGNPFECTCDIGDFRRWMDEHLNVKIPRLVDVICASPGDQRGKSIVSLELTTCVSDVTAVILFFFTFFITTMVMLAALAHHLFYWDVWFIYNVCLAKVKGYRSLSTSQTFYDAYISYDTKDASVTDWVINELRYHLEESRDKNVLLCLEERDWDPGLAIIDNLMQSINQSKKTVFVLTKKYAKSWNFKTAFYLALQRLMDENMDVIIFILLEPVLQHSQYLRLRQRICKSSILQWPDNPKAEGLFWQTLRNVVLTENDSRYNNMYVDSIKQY
Outline: as §1

pIC50 (human TLR7) | pIC50 (human TLR9) | pIC50 (human TLR8) | SMILES
7.89 | 5.24 | 7.89 | Cc1c(-c2[nH]c3ccc(C4CCCN(CC(=O)N(C)C)C4)cc3c2C(C)C)cn2ncnc2c1C (stereo not drawn) [Example 230]
9.15 | 4.85 | 8.01 | COc1cc(-c2[nH]c3ccc(C4CCC(NS(C)(=O)=O)CC4)cc3c2C(C)C)cn2ncnc12 (stereo not drawn) [Example 117, N-(4-(3-isopropyl-2-(8-methoxy-[1,2,4]triazolo[1,5-a]pyridin-6-yl)-1H-indol-5-yl)cyclohexyl)methanesulfonamide]
8.30 | 6.16 | 7.29 | CN[C@H](C)C(=O)N1CCCC(c2ccc3[nH]c(-c4cc(C)nc(C)c4)c(C(C)C)c3c2)C1 (stereo partly drawn) [Example 217]
9.39 | 5.35 | 8.60 | COc1cc(-c2[nH]c3ccc(C4CCC(NC(=O)CN5CC6(COC6)C5)CC4)cc3c2C(C)C)cn2ncnc12 (stereo not drawn) [Example 138]
7.49 | 5.99 | 9.03 | Cc1cc(-c2[nH]c3ccc(C4CN(C(C)C)CCO4)cc3c2C(C)C)cc(C)n1 (stereo not drawn) [Example 305]
8.30 | 5.28 | 8.54 | COc1cc(-c2[nH]c3ccc(CCN4CCCCC4)cc3c2C(C)C)cn2ncnc12 [Example 412]
9.51 | 5.70 | 8.77 | COc1cc(-c2[nH]c3ccc(C4CCC(NCC(=O)NC5COC5)CC4)cc3c2C(C)C)cn2ncnc12 (stereo not drawn) [Example 165]
7.80 | 4.50 | 7.08 | Cc1cc(-c2[nH]c3ccc(C4CCCN(C(=O)CN5CCOCC5)C4)cc3c2C(C)C)cc(C)n1 (stereo not drawn) [Example 196]
8.10 | 5.27 | 7.31 | COc1cc(-c2[nH]c3ccc(CC4CN(CC#N)C4)cc3c2C(C)C)cn2ncnc12 [Example 432]
7.47 | 5.68 | 7.80 | CC(C)c1c(-c2ccnc3[nH]ncc23)[nH]c2ccc(C(C)C3CCNCC3)cc12 (stereo not drawn) [Example 423]
9.37 | 6.02 | 9.25 | COc1cc(-c2[nH]c3ccc(C4CNCCO4)cc3c2C(C)C)cn2ncnc12 (stereo not drawn) [Example 285]
9.04 | 6.59 | 9.08 | Cc1c(-c2[nH]c3ccc(C4CCC(N5CC(CO)(CO)C5)CC4)cc3c2C(C)C)cn2ncnc2c1C (single isomer, unassigned) [Example 26]
9.00 | 5.38 | 8.47 | Cc1c(-c2[nH]c3ccc(C4CN(C(=O)CN(C)C)CCO4)cc3c2C(C)C)cn2ncnc2c1C (stereo not drawn) [Example 329]
7.55 | 6.57 | 8.47 | Cc1cc(-c2[nH]c3ccc([C@@H]4C[C@H]4CN4CCCC4)cc3c2C(C)C)ccn1 [Example 464]
9.01 | 5.74 | 8.20 | CCN(C)C1CCC(c2ccc3[nH]c(-c4cc(C)c5ncnn5c4)c(C(C)C)c3c2)CC1 (stereo not drawn) [Example 62]
8.70 | 4.56 | 8.10 | COc1cc(-c2[nH]c3ccc(C4CCC(NC(=O)CN(C)C5CC5)CC4)cc3c2C(C)C)cn2ncnc12 (stereo not drawn) [Example 143]
8.05 | < 4.30 | 7.21 | COc1cc(-c2[nH]c3ccc(C4CCC(NC(C)=O)CC4)cc3c2C(C)C)cn2ncnc12 (single isomer, unassigned) [Example 116, N-(4-(3-isopropyl-2-(8-methoxy-[1,2,4]triazolo[1,5-a]pyridin-6-yl)-1H-indol-5-yl)cyclohexyl)acetamide]
9.28 | 6.12 | 8.35 | Cc1c(-c2[nH]c3ccc(C4CCC(N(C)C)CC4)cc3c2C(C)C)cn2cnnc2c1C (stereo not drawn) [Example 527]
7.96 | 5.71 | 8.01 | Cc1c(-c2[nH]c3ccc(CC4CNC4)cc3c2C(C)C)cn2ncnc2c1C [Example 399, 5-[(azetidin-3-yl)methyl]-2-{7,8-dimethyl-[1,2,4]triazolo[1,5-a]pyridin-6-yl}-3-(propan-2-yl)-1H-indole]
9.38 | 6.48 | 8.74 | CNC1CCC(c2ccc3[nH]c(-c4cc(C)nc(C)c4)c(C(C)C)c3c2)CC1 (single isomer, unassigned) [Example 52]
8.22 | < 4.30 | 7.37 | COCCC(=O)N1CCCC(c2ccc3[nH]c(-c4cc(C)nc(C)c4)c(C(C)C)c3c2)C1 (stereo not drawn) [Example 208]
8.30 | 5.33 | 7.60 | Cc1c(-c2[nH]c3ccc(C4CC5CN(CC6(C)COC6)CC5C4)cc3c2C(C)C)cn2cnnc2c1C (stereo not drawn) [Example 561]
9.40 | 5.92 | 8.55 | COc1cc(-c2[nH]c3ccc(C4CCCNC4)cc3c2C(C)C)cn2ncnc12 (stereo not drawn) [Example 181, 6-(3-isopropyl-5-(piperidin-3-yl)-1H-indol-2-yl)-8-methoxy-[1,2,4]triazolo[1,5-a]pyridine]
